Patent US7432301B2, “Use of S-nitrosothiol signaling to treat disordered control of breathing” (University of Virginia Patent Foundation, priority 2001, dated 2008)
“Also recorded” adds a separate entry of the source. Values belong to the compound of their own block, whether it stands above or below them.

Assays:
[1] = test system: blood pressure or heart rate; assay: Hemodynamic effects (blood pressure, heart rate) of SNOs; format: in vivo; details: same species
[2] = test system: respiratory centers of the NTS; assay: Minute ventilation (VE) by whole-body plethysmography after bilateral microinjection into the NTS of freely behaving, conscious rats; format: in vivo, rat; details: for increase in VE (minute ventilation): 1 nmol injected into NTS, conscious rats; for VE change from baseline: administered at NTS, dose not given (FIG. 1C); for onset/decay characteristics of the VE response: after injection into NTS, compared with hypoxia and return to normoxia (FIGS. 1A, 1B); for effect on VE: excess amount, n=3, P=NS
Description: To test the hypothesis that SNOs stimulate respiratory centers of the NTS to increase VE, the ability of endogenous SNOs to increase VE in freely behaving, conscious rats using whole-body plethysmography was examined.
(§1) A dual cannula (22G; Plastics One) was implanted close to the nucleus of the solitary tract according to standard stereotaxic coordinates (−14.0 mm bregma, 0.5 mm off midline, 7.0 mm depth; see Paxinos, G. & Watson, C. The Rat Brain in Stereotaxic Coordinates (Academic, New York, 1986), figure 74) through a hole drilled into the occipital skull of male Sprague-Dawley rats (approximately 250 g; pentobarbital anaesthesia). Placement was confirmed histologically after protocol completion. After recovery for 48 h (return to normal feeding and sleep/waking patterns), breath-by-breath ventilation was measured using the barometric method previously described (Gozal et al., J. Appl. Physiol. 81, 2068-2077 (1996)) after simultaneous, bilateral 0.1-ul injections in the freely behaving animal.

[3] = molecular target: T1, γ-glutamyl transpeptidase (GGT) (Rattus norvegicus, UniProt P07314); assay: Effect of GGT inhibition (acivicin pre-treatment of NTS) on ventilatory effects of SNOs and on ventilatory offset; format: in vivo; details: for SNO-stimulated VE increase after GGT inhibition: SNO 10 nmol microinjection after pre-treatment with acivicin 7.5 nmol (FIG. 2A)
T1 construct: from tissue; host or cells: nucleus tractus solitarius (brainstem) of living male Sprague-Dawley rats
T1 sequence (P07314 whole entry): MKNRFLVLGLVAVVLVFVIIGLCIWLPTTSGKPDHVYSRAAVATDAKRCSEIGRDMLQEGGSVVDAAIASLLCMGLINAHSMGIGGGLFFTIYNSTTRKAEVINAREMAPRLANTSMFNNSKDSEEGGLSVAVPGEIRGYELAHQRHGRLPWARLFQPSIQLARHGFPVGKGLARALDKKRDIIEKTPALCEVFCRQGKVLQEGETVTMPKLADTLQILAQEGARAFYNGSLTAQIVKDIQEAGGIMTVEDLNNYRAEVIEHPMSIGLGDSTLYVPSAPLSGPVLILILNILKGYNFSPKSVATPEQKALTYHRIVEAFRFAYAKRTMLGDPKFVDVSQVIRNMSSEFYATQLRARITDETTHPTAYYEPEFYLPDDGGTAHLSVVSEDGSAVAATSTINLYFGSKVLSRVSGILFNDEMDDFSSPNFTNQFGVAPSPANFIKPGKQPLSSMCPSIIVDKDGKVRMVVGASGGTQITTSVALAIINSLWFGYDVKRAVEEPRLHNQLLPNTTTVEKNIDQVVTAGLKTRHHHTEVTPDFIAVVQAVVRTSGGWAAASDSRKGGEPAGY
Description: CGSNO (10 nmol) stimulated VE increases that were not modified by acivicin (P=NS; n=6). FIG. 2B represents the data generated from a hypoxic ventilatory response in GGT-deficient mice (+/+, wild type; +/−, heterozygotes; −/−, GGT-deficient). Lowest VE during the 30 s after cessation of hypoxia is expressed as percent change from pre-hypoxia baseline (P<0.0001; n=8 each group).
Endothelial transport and targeted neuronal biological activity of GSNO may depend, under certain circumstances, on biochemical modifications such as cleavage by GGT to form CGSNO. […] Moreover, normal ventilatory offset (that is, the gradual return to baseline of VE after recovery from hypoxia that prevents apnea) was inhibited by acivicin. […] This distinction may have pharmacological implications.
as §1

[4] = Decay of CSNO isomers in rat brainstem homogenates; format: in vitro ADME
Description: To test the hypothesis that SNOs stimulate respiratory centers of the NTS to increase VE, the ability of endogenous SNOs to increase VE in freely behaving, conscious rats using whole-body plethysmography was examined. […] The L- and D-isomers of CSNO decayed at identical rates in rat brainstem homogenates (26% min-1 mg -1 protein each; P=not significant (NS)).
(§2) SNOs were prepared by acid nitrosation, titrated to pH 7.4 and maintained in EDTA in the dark at −80° C. until use to prevent decomposition. SNOs were detected by reduction/chemiluminescence as previously described (Fang et al., Biochem. Biophys. Res. Commun. 252, 535-540 (1998)). Briefly, samples were injected into 100 μM CuCl, 1 mM cysteine (pH 6; 50 8C) and purged with helium (grade 5; BOC Gases). Evolved NO was measured by chemiluminescence.

[5] = Relative stability of deoxygenated blood-derived SNOs; format: physicochemical
Description: Oxygenated blood drawn in an airtight syringe with GSH and EDTA (final concentrations 400 μM) by left ventricular puncture (rat) or peripherally (human) was maintained in 21% oxygen. Venous blood was reacted identically and was transferred to a hypoxia chamber under argon. Oxygen tension was measured electrochemically (Chirion). Samples underwent centrifugation (3,000 g for 5 min) followed by ultrafiltration (10K; Millipore), separation and selective ultraviolet photolysis (Jelight PS-3000-30; Laguna-Hills).
as §2

SNO-stimulated VE increase after GGT inhibition [3]: abolished
Compound: N[C@@H](CCC(=O)N[C@@H](CSN=O)C(=O)NCC(=O)O)C(=O)O [GSNO, S-nitrosoglutathione]
effects on blood pressure or heart rate (hemodynamic effects) [1]: no effects; also recorded: not reproduced | increase in VE (minute ventilation) [2]: equivalent increases | VE change from baseline [2]: increases in VE; also recorded: dramatically increase | onset/decay characteristics of the VE response [2]: identical to those for recovery from hypoxia

Compound: Nc1nc2c(nc(Br)n2[C@@H]2O[C@@H]3COP(=O)(O)O[C@H]3[C@H]2O)c(=O)[nH]1 [8-bromocyclic GMP, reference compound]
effect on VE [2]: neither excess 8-bromocyclic GMP nor glutathione had any effect

decay rate [4]: 26 % min-1 mg -1 protein
Compound: N[C@@H](CSN=O)C(=O)O [L-CSNO, S-nitroso-L-cysteine]
increase in VE (minute ventilation) [2]: equivalent increases | VE change from baseline [2]: increases in VE

Compound: N[C@@H](CCC(=O)N[C@@H](CS)C(=O)NCC(=O)O)C(=O)O [glutathione]
effect on VE [2]: neither excess 8-bromocyclic GMP nor glutathione had any effect

decay rate [4]: 26 % min-1 mg -1 protein
Compound: N[C@H](CSN=O)C(=O)O [D-CSNO, S-nitroso-D-cysteine, reference compound]
increase in VE (minute ventilation) [2]: no effect | VE change from baseline [2]: without effect

effect on GSNO-mediated increases in VE ([3]; NTS pre-treatment with the inhibitor): attenuated | effect on normal ventilatory offset (gradual return of VE to baseline after hypoxia) ([3]; recovery from hypoxia): inhibited
Compound: N[C@H](C(=O)O)[C@@H]1CC(Cl)=NO1 [acivicin, reference compound]

stability relative to GSNO [5]: less stable than GSNO
Compound: N[C@@H](CSN=O)C(=O)NCC(=O)O [CGSNO, S-Nitrosocysteinyl glycine]
increase in VE (minute ventilation) [2]: marked increase; also recorded: equivalent increases | VE change from baseline [2]: increases in VE | onset/decay characteristics of the VE response [2]: identical to those observed during short exposure of the whole animal to hypoxia and return to normoxia | SNO-stimulated VE increase after GGT inhibition [3]: not modified; also recorded: increases minute ventilation; also recorded: overcame this inhibition
